# Data from US20150210660A1, “ALICYCLIC EPOXY COMPOUND AND METHOD FOR PRODUCING SAME” (DAICEL CORPORATION, priority 2012, published 2015).
# What was measured:
# [1] = Evaluation of reactivity with acid (stirring with 2-ethylhexanoic acid in 1,3,5-trimethylbenzene at 150° C.); format: physicochemical; conditions: for Oxirane oxygen content: HBr titrimetry; for Acid value: JIS K 0070
# Description: A mixture was prepared by blending 5.2 g of the 3,4-epoxycyclohexylmethyl 3,5,5-trimethylhexanoate prepared in Example 1 (product of Example 1), 1.4 g of 2-ethylhexanoic acid (trade name Octanoic Acid, supplied by Kyowa Hakko Chemical Co., Ltd.), and 8.5 g of 1,3,5-trimethylbenzene (reagent, supplied by Wako Pure Chemical Industries, Ltd.). The mixture was stirred at 150° C. for 6 hours. The acid value and oxirane oxygen content of the mixture were measured before the stirring with heating, and 2 hours, 4 hours, and 6 hours into the stirring.
# The oxirane oxygen content measurement in the evaluation of reactivity with acid was performed by HBr titrimetry in which titration was performed with a N/10 hydrogen bromide solution in acetic acid and with crystal violet as an indicator. The acid value measurement was performed in conformance with a method described in JIS K 0070.
# Instead of 3,4-epoxycyclohexylmethyl 3,5,5-trimethylhexanoate, there were prepared 3,4-epoxycyclohexylmethyl(3,4-epoxy)cyclohexane carboxylate (trade name CELLOXIDE 2021P, supplied by Daicel Corporation), 4-vinylcyclohexene oxide (trade name CELLOXIDE 2000, supplied by Daicel Corporation), 1-methyl-4-(2-methyloxiranyl)-7-oxabicyclo[4.1.0]heptane (trade name CELLOXIDE 3000, supplied by Daicel Corporation), D-limonene oxide (supplied by Nippon Terpene Chemicals, Inc.), and di-2-ethylhexyl epoxyhexahydrophthalate (trade name SANSO CIZER E-PS, supplied by New Japan Chemical Co., Ltd.). These epoxides were used in charged amounts given in Table 1 and subjected to evaluation of reactivity with an acid (2-ethylhexanoic acid) by the above procedure.
# Table 2 also gives acid residual percentages as calculated from the acid values. The acid residual percentages are percentages of the acid present in the system (in the mixture) at the individual timings (after 2 hours, 4 hours, and 6 hours) in which the amount of the acid present in the system before the stirring with heating (0 hour) was defined as 100%.
# [2] = Volatility evaluation: boiling point measurement under reduced pressure using a distillator; format: physicochemical
# Description: The 3,4-epoxycyclohexylmethyl 3,5,5-trimethylhexanoate prepared in Example 1 was subjected to boiling point measurement under reduced pressure using a distillator.
# The measured boiling points at the individual pressures were plotted on a logarithmic graph (semilogarithmic graph with the logarithmic scale indicating the pressure) to give an approximate curve. Using the approximate curve, a boiling point of the product at normal atmospheric pressure (760 Torr; 101325 Pa) was calculated and found to be 307° C.
# [3] = stirring time 0 hr (before heating), defined as 100%
# [4] = stirring time 0 hr (before heating)
# [5] = stirring time 2 hrs at 150° C., calculated from acid values, 0 hr = 100%
# [6] = stirring time 4 hrs at 150° C., calculated from acid values, 0 hr = 100%
# [7] = stirring time 6 hrs at 150° C., calculated from acid values, 0 hr = 100%
"Acid residual percentage [1, 3] [%]","Oxirane oxygen content [1, 4] [%]","Acid value [1, 4] [KOH-mg/g]",Oxirane oxygen content ([1]; stirring time 2 hrs at 150° C.) [%],Acid value ([1]; stirring time 2 hrs at 150° C.) [KOH-mg/g],"Acid residual percentage [1, 5] [%]",Oxirane oxygen content ([1]; stirring time 4 hrs at 150° C.) [%],Acid value ([1]; stirring time 4 hrs at 150° C.) [KOH-mg/g],"Acid residual percentage [1, 6] [%]",Oxirane oxygen content ([1]; stirring time 6 hrs at 150° C.) [%],Acid value ([1]; stirring time 6 hrs at 150° C.) [KOH-mg/g],"Acid residual percentage [1, 7] [%]",acid-scavenging capability (reactivity with the acid) ([1]; as compared with the other epoxides of Table 2),"boiling point at normal atmospheric pressure ([2]; 760 Torr, 101325 Pa, calculated from approximate curve of the measured boiling points) [°C]",boiling point ([2]; at 11 Torr (1467 Pa)) [°C],boiling point ([2]; at 31 Torr (4133 Pa)) [°C],boiling point ([2]; at 50 Torr (6666 Pa)) [°C],Structure (SMILES)
100,2.00,37.56,1.51,21.23,57,1.33,14.54,39,1.11,11.22,30,–,–,–,–,–,"O=C(OCC1CCC2OC2C1)C1CCC2OC2C1 (centres unmarked) [CELLOXIDE 2021P, 3,4-epoxycyclohexylmethyl(3,4-epoxy)cyclohexane carboxylate]"
100,1.92,38.36,1.56,26.27,68,1.38,22.44,58,1.25,19.15,50,–,–,–,–,–,"C=C(C)C1CCC2(C)OC2C1 [D-Limonene oxide, D-limonene oxide]"
100,1.82,37.66,1.20,20.32,54,1.00,13.13,35,0.89,9.98,27,higher acid-scavenging capability,307,191,218,233,"CC(CC(=O)OCC1CCC2OC2C1)CC(C)(C)C (centres unmarked) [Product of Example 1, 3,4-epoxycyclohexylmethyl 3,5,5-trimethylhexanoate]"
100,1.84,38.13,1.72,33.80,89,1.63,32.16,84,1.53,27.97,73,–,–,–,–,–,"CCCCC(CC)COC(=O)C1CC2OC2CC1C(=O)OCC(CC)CCCC (centres unmarked) [SANSO CIZER E-PS, di-2-ethylhexyl epoxyhexahydrophthalate]"

Structure (SMILES),"Acid residual percentage [1, 3] [%]","Oxirane oxygen content [1, 4] [%]","Acid value [1, 4] [KOH-mg/g]",Oxirane oxygen content ([1]; stirring time 2 hrs at 150° C.) [%],Acid value ([1]; stirring time 2 hrs at 150° C.) [KOH-mg/g],"Acid residual percentage [1, 5] [%]",Oxirane oxygen content ([1]; stirring time 4 hrs at 150° C.) [%],Acid value ([1]; stirring time 4 hrs at 150° C.) [KOH-mg/g],"Acid residual percentage [1, 6] [%]",Oxirane oxygen content ([1]; stirring time 6 hrs at 150° C.) [%],Acid value ([1]; stirring time 6 hrs at 150° C.) [KOH-mg/g],"Acid residual percentage [1, 7] [%]",acid-scavenging capability (reactivity with the acid) ([1]; as compared with the other epoxides of Table 2),"boiling point at normal atmospheric pressure ([2]; 760 Torr, 101325 Pa, calculated from approximate curve of the measured boiling points) [°C]",boiling point ([2]; at 11 Torr (1467 Pa)) [°C],boiling point ([2]; at 31 Torr (4133 Pa)) [°C],boiling point ([2]; at 50 Torr (6666 Pa)) [°C]
"C=CC1CCC2OC2C1 (centres unmarked) [CELLOXIDE 2000, 4-vinylcyclohexene oxide]",100,1.92,35.90,146,23.80,66,1.25,17.54,49,1.15,12.90,36,–,–,–,–,–
"CC1(C2CCC3(C)OC3C2)CO1 (centres unmarked) [CELLOXIDE 3000, 1-methyl-4-(2-methyloxiranyl)-7-oxabicyclo[4.1.0]heptane]",100,1.81,36.04,0.91,24.52,68,0.71,22.04,61,0.61,18.65,52,–,–,–,–,–
